Assay results from patent US20160282364A1, “ASSAY FOR INSULIN-DEGRADING ENZYME (IDE) INHIBITORS” (PRESIDENT AND FELLOWS OF HARVARD COLLEGE, priority 2013, published 2016).

Legend:
lean mice = assay: Basal blood glucose and hormone levels without nutrient challenge; format: in vivo, mouse; settings: 80 mg/kg, no glucose challenge, vs controls
Description: Glucose tolerance tests GTT and blood glucose measurements. Prior to a glucose challenge, the animals were fasted for 14 h (8 pm to 10 am, during the dark cycle) while individually housed in a clean cage with inedible wood-chip as a floor substrate, cotton bedding and a red plastic hut. Inhibitor, vehicle or control compounds were administered by a single intraperitoneal (i.p.) injection 30 min prior to the glucose challenge. Dextrose was formulated in sterile saline (3 g in 10 mL total), and the dose was adjusted by fasted body weight. For oGTT, 3.0 g/kg dextrose was administered by gavage at a dose of 10 mL/kg, and for ipGTT, 1.5 g/kg dextrose injected at a dose of 5 mL/kg. Blood glucose was measured using AccuCheck® meters (Aviva) from blood droplets obtained from a small nick at the tip of the tail, at timepoints −45, 0, 15, 30, 45, 60, 90 and 120 min with reference to the time of glucose injection. The area of the blood glucose response profile curve corresponding to each animal was calculated by the trapezoid method^17, using as reference each individual baseline blood glucose measurement prior to glucose administration (t=0). […] Values are reported as mean±S.E.M. Statistics were performed using a two-tail Student's t-test, and significance levels shown in the figures are *p<0.05 versus vehicle control group or **p<0.01 versus vehicle control group. […]

IDE = IDE (Homo sapiens, UniProt P14735); assay: Protease assay with fluorogenic peptide substrate Mca-[…](Dnp)-OH (IDE species not given); format: biochemical; parameters: The proteases IDE42-1019, recombinant human IDE42-1019 (R&D Systems); settings: IDE
Description: All data points and error bars represent mean±SEM. Significance tests were performed using two-tail Student's t-test, and significance levels shown in the figures are p<0.05 (*) or p<0.01 (**) versus the vehicle-only control group. The in vitro selection of the DNA-templated macrocycle libraryl^16,17 used 20 μg His6-tagged mouse IDE immobilized on cobalt magnetic beads (Dynabeads, Invitrogen). IDE proteolytic activity was assayed with fluorogenic peptide Mca-[…](Dnp)-OH (R&D). IDE inhibition was confirmed using an anti-insulin antibody time-resolved FRET assay (Cysbio), and using an LCMS assay for CGRP cleavage fragments CGRP1-17 and CGRP18-37 in plasma^18. […] Protease assays with fluorogenic peptide substrates. […] (R&D). All assay data points were obtained in duplicate.

hIDE WT = target: T1, hIDE WT (Homo sapiens, UniProt P14735); assay: Small molecule-enzyme mutant complementation study, wild type; format: biochemical
T1 construct: The reported N-His6-tagged human IDE42-1019 construct; made in house; host or cells: E. coli Rosetta 2 (DE3) pLysS
From the text: Protease assays with fluorogenic peptide substrates. […] All assay data points were obtained in duplicate.
Site-directed mutagenesis, expression, and purification of human IDE. The reported N-His6-tagged human IDE42-1019 construct was introduced in the expression plasmid pTrcHis-A (Invitrogen) using primers for uracil-specific excision reactions (USER) by Taq (NEB) and Pfu polymerases (PfuTurbo CX®, Agilent). The IDE gene was amplified with the primers 5′-[…]-dU-[…] and 5′-[…] G-dU-[…] (underlined sequences represent overhangs, and italics highlight the PCR priming sequence). Similarly, the pTrcHis-A vector was amplified for USER cloning with the primers 5′-[…] TGA-dU-[…] CCC and 5′-[…]-dU-[…]. Mutant IDE constructs were generated by amplifying the full vector construct with USER cloning primers introducing a mutant overhang (Table 5).
All PCR products were purified on microcentrifuge membrane columns (MinElute®, Qiagen) and quantified by UV absorbance (NanoDrop). Each fragment (0.2 pmol) was combined in a 10 μL reaction mixture containing 20 units DpnI (NEB), 0.75 units of USER mix (Endonuclease VIII and Uracil-DNA Glycosylase, NEB), 20 mM Tris-acetate, 50 mM potassium acetate, 10 mM magnesium acetate, 1 mM dithiothreitol at pH 7.9 (1× NEBuffer 4). The reactions were incubated at 37° C. for 45 min, followed by heating to 80° C. and slow cooling to 30° C. (0.2° C./s). The hybridized constructs were directly used for heat-shock transformation of chemically competent NEB turbo E. coli cells according to the manufacturer's instructions. Transformants were selected on carbenicillin LB agar, and isolated colonies were cultured overnight in 2 mL LB.
The plasmid was extracted using a microcentrifuge membrane column kit (Miniprep®, Qiagen), and the sequence of genes and vector junctions were confirmed by Sanger sequencing (Table 6). The plasmid constructs were transformed by heat-shock into chemically-competent expression strain Rosetta 2 (DE3) pLysS E. coli cells (EMD Millipore), and selected on carbenicillin/chloramphenicol LB agar. Cells transformed with IDE pTrcHis A constructs were cultured overnight at 37° C. in 2 XYT media (31 g in 1 L) containing 100 μg/mL ampicillin and 34 μg/mL chloramphenicol. Expression of His6-tagged IDE proteins was induced when the culture measured OD600 ˜0.6 by addition of isopropyl-β-D-1-thiogalactopyranoside (IPTG) to 1 mM final concentration, incubated overnight at 37° C., followed by centrifugation at 10,000 g for 30 min at 4° C.
Recombinant His6-tagged proteins were purified by Ni(II)-affinity chromatography (IMAC sepharose beads, GE Healthcare®) according to the manufacturer's instructions. The cell pellets were resuspended in pH 8.0 buffer containing 50 mM phosphate, 300 mM NaCl, 10 mM imidazole, 1% Triton X-100 and 1 mM tris(2-carboxyethyl)phosphine hydrochloride (TCEP), and were lysed by probe sonication for 4 min at 4° C., followed by clearing of cell debris by centrifugation at 10,000 g for 25 min at 4° C. The supernatant was incubated with Ni(II)-doped IMAC resin (2 mL) for 3 h at 4° C. The resin was washed twice with the cell resuspension/lysis buffer, and three times with pH 8.0 buffer containing 50 mM phosphate, 300 mM NaCl,50 mM imidazole and 1 mM TCEP. Elution was performed in 2 mL aliquots by raising the imidazole concentration to 250 mM and subsequently to 500 mM in the previous buffer. The fractions were combined and the buffer was exchanged to the recommended IDE buffer (R&D) using spin columns with 100 KDa molecular weight cut off membranes (Millipore). Protein yields were typically ˜10 μg/L, and >90% purity based on gel electrophoresis analysis (Coomassie stained).

T1 sequence (P14735 42-1019): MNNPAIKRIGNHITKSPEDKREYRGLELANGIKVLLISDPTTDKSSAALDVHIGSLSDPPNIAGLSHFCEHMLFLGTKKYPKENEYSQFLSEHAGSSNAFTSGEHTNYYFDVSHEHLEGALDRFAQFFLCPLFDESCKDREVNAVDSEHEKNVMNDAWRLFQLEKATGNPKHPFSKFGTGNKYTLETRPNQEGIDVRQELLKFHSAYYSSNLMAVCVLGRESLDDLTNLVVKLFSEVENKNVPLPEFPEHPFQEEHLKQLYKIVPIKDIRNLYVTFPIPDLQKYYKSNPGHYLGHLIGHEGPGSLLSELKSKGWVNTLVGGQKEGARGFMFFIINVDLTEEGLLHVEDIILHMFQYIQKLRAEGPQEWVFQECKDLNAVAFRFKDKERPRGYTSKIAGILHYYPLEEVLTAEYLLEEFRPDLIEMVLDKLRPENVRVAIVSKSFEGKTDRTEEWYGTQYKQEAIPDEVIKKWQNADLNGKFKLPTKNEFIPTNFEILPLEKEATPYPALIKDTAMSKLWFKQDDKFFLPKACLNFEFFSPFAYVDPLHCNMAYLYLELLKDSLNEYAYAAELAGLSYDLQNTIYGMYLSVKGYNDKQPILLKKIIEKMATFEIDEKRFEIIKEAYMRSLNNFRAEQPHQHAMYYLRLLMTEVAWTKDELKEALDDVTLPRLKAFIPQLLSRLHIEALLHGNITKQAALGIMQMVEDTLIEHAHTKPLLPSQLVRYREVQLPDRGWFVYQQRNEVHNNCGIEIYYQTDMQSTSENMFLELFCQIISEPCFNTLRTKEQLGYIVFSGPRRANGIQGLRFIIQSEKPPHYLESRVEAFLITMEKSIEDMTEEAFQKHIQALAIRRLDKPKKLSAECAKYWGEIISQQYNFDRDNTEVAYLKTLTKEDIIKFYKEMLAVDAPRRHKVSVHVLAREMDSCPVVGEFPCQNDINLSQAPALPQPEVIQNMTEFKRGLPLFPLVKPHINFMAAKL
Chain of IDE (P14735 42-1019): as above

IC50 shift (hIDE WT; batch 1 (reference)) [fold]	IC50 shift (hIDE WT; batch 2 (reference)) [fold]	IC50 shift (hIDE WT; batch 3 (reference)) [fold]	SMILES	basal blood glucose or hormone levels (lean mice)	IC50 (IDE) [nM]
			NCCCC[C@@H]1NC(=O)/C=C/C(=O)N[C@H](C(N)=O)CCCCNC(=O)[C@@H](Cc2ccc(C(=O)c3ccccc3)cc2)NC(=O)[C@H](CC2CCCCC2)NC1=O [Compound 6bK]	did not significantly alter	50
1.0	1.0	1.0	NC(=O)CCC1NC(=O)C=CC(=O)NC(C(N)=O)CCCCNC(=O)C(Cc2ccc(C(=O)c3ccccc3)cc2)NC(=O)C(CC2CCCCC2)NC1=O (centres unmarked) [Compound 6b]		
